Converted amounts (≈) assume the structure as drawn. Like-named read-outs stand apart in the source and are kept apart here.

Series [1] deals with S. aureus (ATCC 25923). The following applies: cited from earlier work.
Series [2] deals with S. aureus (ATCC 25923). The series can be described thus: MIC & MBC determination, standard broth microdilution method. The series is classed as cell-based. The following applies: for antimicrobial activity: broth microdilution, up to the highest concentration tested; for effect of the combination on the activity of CHX-A: tested in combination with CHX-A. The text has this:
The antimicrobial efficacy of Compound 2 and drug released from Compound 2 was investigated using a standard broth microdilution method. The minimum inhibitory concentration (MIC) and minimum bactericidal concentration (MBC) were investigated for Compound 2, drug released from Compound 2, triethylene glycol (TEG), Ciprofloxacin hydrochloride (Cipro®HCl), chlorhexidine diacetate (CHX-A), and Compound 2+CHX-A. The MIC is defined as the lowest concentration of an antimicrobial agent that will inhibit visible growth of a microorganism after overnight incubation. The MBC is defined as the lowest concentration of an antimicrobial agent required to kill 99.9% of a microorganism population. This study was carried out using two gram positive bacteria, E. faecalis (ATCC 29212) and S. aureus (ATCC 25923), and two gram negative bacteria, E. coli (ATCC 25922) and P. aeruginosa (ATCC 27853). The test samples were prepared using 2-fold dilutions per well and covered a concentration range at least 2 dilutions above and 2 dilutions below literature MIC values for the microorganisms tested.
The antimicrobial efficacy of Compound 3 and drug released from Compound 3 investigated using a standard broth microdilution method. The MIC and MBC were investigated for Compound 3, drug released from Compound 3, TEG, Cipro®HCl, CHX-A, and Compound 3+CHX-A. This study was carried out using two gram positive bacteria, E. faecalis (ATCC 29212) and S. aureus (ATCC 25923), and two gram negative bacteria, E. coli (ATCC 25922) and P. aeruginosa (ATCC 27853). The test samples were prepared using 2-fold dilutions per well and covered a concentration range at least 2 dilutions above and 2 dilutions below literature MIC values for the microorganisms tested.
A general note: In broth dilution the organism is exposed to a series of concentrations in liquid medium.

The nature of series [3]: Drug release in solution (PBS pH 7.4, 37° C., RP-HPLC). In kind it is physicochemical. The following applies: 0.1 mg/ml in PBS pH 7.4, 37° C. The procedure: Compound 2 was dissolved in PBS (pH 7.4) at 0.1 mg/ml and placed in incubator at 37° C. At each time point (0, 1, 3, 7, 14, 21, & 28 days), solution was removed from incubator and analyzed for the drug by RP-HPLC using established protocols (FIG. 6). […] The release profile of compound 2 was also evaluated in a device prototype assembly using bovine serum, blood (porcine) or a gel matrix.
Compound 3 was dissolved in PBS (pH 7.4) at 0.1 mg/ml and placed in incubator at 37° C. At each time point (0, 1, 3, 7, 14, 21, & 28 days), solution was removed from incubator and analyzed for drug by RP-HPLC using established protocols.

The next series deals with mice. The series can be described thus: Acute Systemic Toxicity following ISO 10993-11. In kind it is in vivo. The following applies: single injection 50 mL/kg per mouse, observed to 72 h. As to the method: A single injection dose of 50 mL/kg per mouse (˜1 mL) was administered to 5 mice per test sample.
Series [4] is described as follows: Accelerated drug release in acidic, basic or neutral conditions (RP-HPLC). The following applies: 37° C. In kind it is physicochemical. As to the method:
Compound 2 was prepared at 10 mg/ml in 0.1 N HCl (final pH ˜4), 0.1 N NaOH (final pH ˜10), and PBS (final pH ˜7). Samples were incubated at 37° C. in acidic, basic, or neutral conditions. At each time point, the drug concentration was quantified by RP-HPLC.

In another series the test system is New Zealand rabbits. The series can be described thus: Intracutaneous Reactivity, ISO 10993-10: 2010. In kind it is in vivo. To be noted: 0.2 mL intracutaneous injections, scored after 24, 48, 72 h. The procedure: (§1) Compound 2 was dissolved in PBS (9.2×10 mg/mL) and tested for Intracutaneous Reactivity in accordance with ISO 10993-10: 2010 Standard, Biological Evaluation of Medical Devices, Part 10: Tests for Irritation and Skin Sensitization, Pages 11-14. Each rabbit received five sequential 0.2 mL intracutaneous injections along either side of the dorsal mid-line with the test article on one side and the control on the other. Three New Zealand rabbits were used per sample and control. The injection sites were observed and scored for erythema (redness) and edema (swelling) after 24, 48, and 72 h on a scale of 1 to 4.
as §1, with “Compound 3” for “Compound 2”, “PBS (5.4×10^−2” for “PBS (9.2×10”

On to `CC(=O)O.CC(=O)O.NC(=N\CCCCCC/N=C(N)/N=C(\N)Nc1ccc(Cl)cc1)/N=C(\N)Nc1ccc(Cl)cc1` [CHX-A, chlorhexidine diacetate], for which the “MBC Literature” value with S. aureus (ATCC 25923) [1] (Table 4) and with S. aureus (ATCC 25923) [1] (Table 5) was 3.9 µg/mL in each case. The “MIC Literature” value in the series with S. aureus (ATCC 25923) [1] (Table 4) and with S. aureus (ATCC 25923) [1] (Table 5) was 0.9 µg/mL in each case. Besides, the “MBC Experimental” value against S. aureus (ATCC 25923) [2] (S. aureus, Table 4) is 1 to 4 µg/mL; in the series on S. aureus (ATCC 25923) [2] (S. aureus, Table 5), 1 to 4 µg/mL. Also, the “MIC Experimental” value in the series with S. aureus (ATCC 25923) [2] (S. aureus, Table 4) is 1 µg/mL; against S. aureus (ATCC 25923) [2] (S. aureus, Table 5, in µg/mL) it was 1.

`O=C(O)c1cn(C2CC2)c2cc(N3CCNCC3)c(F)cc2c1=O` [Cipro Released from Compound 3]: the “MBC Experimental” value with S. aureus (ATCC 25923) [2] (S. aureus, Table 5) turned out to be 1 µg/mL (≈ 3.02 µM). Also, in the series with S. aureus (ATCC 25923) [2] (S. aureus, Table 5, in µg/mL), the “MIC Experimental” value came out at 0.5. In the series with S. aureus (ATCC 25923) [2], the antimicrobial activity entry is “antimicrobial activity consistent with both the Cipro®HCl controls and literature values”.

On to `O=C(OCCOCCOCCOC(=O)c1cn(C2CC2)c2cc(N3CCNCC3)c(F)cc2c1=O)c1cn(C2CC2)c2cc(N3CCNCC3)c(F)cc2c1=O` [Compound 2], for which the total drug released in series [3] (after 28 days) is given as about 8%. Besides, the “signs of toxicity (Acute Systemic Toxicity)” value with mice (in PBS 4×10^−5-9.7×10^−1 mg/mL, higher dosage) is reported as “no signs of toxicity”. The compound further had a drug release in series [4] (10 mg/ml in 0.1 N HCl (final pH ~4), after 7 days) of about 71%. The same compound had a drug release in series [4] (10 mg/ml in 0.1 N NaOH (final pH ~10), in less than 1 day) of 100%. Moreover, the drug release in series [4] (10 mg/ml in PBS (final pH ~7), after 7 days) is given as about 2%. For the same compound, in the series with S. aureus (ATCC 25923) [2] (S. aureus, Table 4), the “MBC Experimental” value is over 78 µg/mL and the “MIC Experimental” value is over 78 µg/mL. Also, in the series on S. aureus (ATCC 25923) [2], the antimicrobial activity result is “did not show any antimicrobial activity” and the “effect of the combination on the activity of CHX-A” value is given as “did not affect the activity of CHX-A”. For the same compound, the “irritation (erythema and edema, Intracutaneous Reactivity)” value with New Zealand rabbits (in PBS 9.2×10 mg/mL) is “non-irritant”.

On to `O=C(OCCOCCOCCO)c1cn(C2CC2)c2cc(N3CCNCC3)c(F)cc2c1=O` [Compound 3], for which the “drug concentration with time (drug release)” value in series [3] (out to at least 28 days) was “linear increase”. The “signs of toxicity (Acute Systemic Toxicity)” value in the series on mice (in PBS 8×10^−4-8×10^−2 mg/mL, all concentrations) is given as “no signs of toxicity”. In addition, the “MBC Experimental” value in the series with S. aureus (ATCC 25923) [2] (S. aureus, Table 5) is over 55.5 µg/mL. For the same compound, in the series with S. aureus (ATCC 25923) [2] (S. aureus, Table 5, in µg/mL), the “MIC Experimental” value is over 55.5. In the series with S. aureus (ATCC 25923) [2], the antimicrobial activity result is “did not show any antimicrobial activity” and the “effect of the combination on the activity of CHX-A” value is given as “did not affect the activity of CHX-A”. The “irritation (erythema and edema, Intracutaneous Reactivity)” value in the series with New Zealand rabbits (in PBS 5.4×10^−2 mg/mL) is “non-irritant”.

Take `OCCOCCOCCO` [TEG, triethylene glycol]: the “MBC Experimental” value against S. aureus (ATCC 25923) [2] (S. aureus, Table 5) is over 100 µg/mL. The “MIC Experimental” value against S. aureus (ATCC 25923) [2] (S. aureus, Table 5, in µg/mL) was over 100. The minimum bactericidal concentration (MBC) in the series with S. aureus (ATCC 25923) [2] (Staphylococcus aureus, ATCC25923, S. aureus, Table 4, read-out: MBC Experimental) is over 100 µg/mL. Also, in the series with S. aureus (ATCC 25923) [2] (Staphylococcus aureus, ATCC25923, S. aureus, Table 4, read-out: MIC Experimental), the MIC was over 100 µg/mL. Also, in the series with S. aureus (ATCC 25923) [2], the antimicrobial activity entry is “No antimicrobial activity”.

For Ciprofloxacin hydrochloride [Cipro*HCl], the “MBC Literature” value with S. aureus (ATCC 25923) [1] (Table 4) and with S. aureus (ATCC 25923) [1] (Table 5) was 0.9 µg/mL throughout. Further, the “MIC Literature” value with S. aureus (ATCC 25923) [1] (Table 4) and in the series on S. aureus (ATCC 25923) [1] (Table 5) was 0.5 µg/mL in each case. Moreover, the “MBC Experimental” value lay in the range of 0.5 to 1 µg/mL against S. aureus (ATCC 25923) [2] (S. aureus, Table 4) and 0.5 to 1 µg/mL against S. aureus (ATCC 25923) [2] (S. aureus, Table 5). In addition, the “MIC Experimental” value against S. aureus (ATCC 25923) [2] (S. aureus, Table 4) is 0.25 to 0.5 µg/mL; against S. aureus (ATCC 25923) [2] (S. aureus, Table 5, in µg/mL), 0.25-0.5.

As usually defined, the MBC is the smallest concentration meeting the test's criterion for killing. For orientation: MIC means the least concentration at which growth counts as inhibited.

(Values after patent publication US20160038651A1, “COMPOUNDS AND COMPOSITIONS FOR DRUG RELEASE” (INTERFACE BIOLOGICS, INC., priority 2013, published 2016).)
